Converted amounts (≈) assume the structure as drawn. Read-outs that look alike come from different tables or passages of the source.

Experimental findings from patent publication US11926627B1 (priority 2023, dated 2024) are described below.

This assay relates to Mycobacterium tuberculosis H37Rv (ATCC: 25177). Description: Resazurin Microplate Assay (REMA), antitubercular activity against H37Rv. It is filed as cell-based. Particulars: 192 h, read-out: Antitubercular activity against Mycobacterium tuberculosis H37Rv (MIC).
The mark [1] stands for this setting: H37Rv, ATCC: 25177, REMA, Middlebrook 7H9 broth, 8 days incubation at 37° C. then resazurin overnight.

Regarding `COC(=O)c1c(C(=O)OC)c2ccc3cc(C)ccc3n2c1C(=O)c1ccc(F)cc1` [7-METHYL-QUIN1, Dimethyl 1-(4-fluorobenzoyl)-7-methylpyrrolo[1,2-α]quinoline-2,3-dicarboxylate], the MIC (H37RV) worked out at 0.5 µg/mL (≈ 1.19 µM).
Take `COC(=O)c1c(C(=O)OC)c2ccc3cc(C)ccc3n2c1C(=O)c1ccc(Br)cc1` [7-METHYL-QUIN2, Dimethyl 1-(4-bromobenzoyl)-7-methylpyrrolo[1,2-α]quinoline-2,3-dicarboxylate]: the MIC under setting [1] is 2 µg/mL (≈ 4.16 µM).
On the same count and under the same terms, then `CCOC(=O)c1cc(C(=O)c2ccc(Cl)cc2)n2c1ccc1cc(C)ccc12` [7-METHYL-QUIN3, Ethyl 1-(4-chlorobenzoyl)-7-methylpyrrolo[1,2-α]quinoline-3-carboxylate], with 4 µg/mL (≈ 10.2 µM); and `COC(=O)c1c(C(=O)OC)c2ccc3cc(C)ccc3n2c1C(=O)c1ccc(Cl)cc1` [7-METHYL-QUIN4, Dimethyl 1-(4-chlorobenzoyl)-7-methylpyrrolo[1,2-α]quinoline-2,3-dicarboxylate], with 4 µg/mL (≈ 9.18 µM).

As usually defined, the MIC is the least concentration at which growth counts as inhibited.
